Source: ChEMBL document CHEMBL1201862, “PubChem BioAssay data set” (2004)
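Where inhibition never reached the appropriate level, the endpoint shown equals the highest concentration tested. Otherwise, values were interpolated linearly from a five-concentration, 48-hour dose response in 96-well plates. GI50: concentration for 50% inhibition of growth.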 Activity calls are given as the source filed them. Rule as the data show it: active = GI50 up to about 1.1 µM and inactive = higher.

Key:
Assay in all cases: DTP human tumour cell line panel, 48 h
UACC-62 = test system: UACC-62
SNB-75 = test system: SNB-75
SR = test system: SR
RPMI-8226 = test system: RPMI-8226
HCT-15 = test system: HCT-15
SK-MEL-28 = test system: SK-MEL-28
NCI-H226 = test system: NCI-H226
OVCAR-4 = test system: OVCAR-4
HOP-62 = test system: HOP-62
NCI-H460 = test system: NCI-H460
SNB-19 = test system: SNB-19
NCI-H522 = test system: NCI-H522
OVCAR-3 = test system: OVCAR-3
OVCAR-8 = test system: OVCAR-8
A498 = test system: A498
SK-MEL-2 = test system: SK-MEL-2
PC-3 = test system: PC-3
EKVX = test system: EKVX
SF-268 = test system: SF-268
MOLT-4 = test system: MOLT-4
KM12 = test system: KM12
HCC 2998 = test system: HCC 2998
M14 = test system: M14
SW-620 = test system: SW-620
SK-OV-3 = test system: SK-OV-3
COLO 205 = test system: COLO 205
LOX IMVI = test system: LOX IMVI
OVCAR-5 = test system: OVCAR-5
MDA-MB-231 = test system: MDA-MB-231
HCT-116 = test system: HCT-116
Malme-3M = test system: Malme-3M
SF-539 = test system: SF-539
T47D = test system: T47D
Hs-578T = test system: Hs-578T
MCF7 = test system: MCF7
HT-29 = test system: HT-29
U-251 = test system: U-251
786-0 = test system: 786-0
TK-10 = test system: TK-10
MDA-N = test system: MDA-N
MDA-MB-435 = test system: MDA-MB-435
CCRF-CEM = test system: CCRF-CEM
NCI/ADR-RES = test system: NCI/ADR-RES
K562 = test system: K562
SF-295 = test system: SF-295
BT-549 = test system: BT-549
DU-145 = test system: DU-145
SN12C = test system: SN12C
SK-MEL-5 = test system: SK-MEL-5
RXF 393 = test system: RXF 393
ACHN = test system: ACHN
HL-60 = test system: HL-60
A549 = test system: A549
CAKI-1 = test system: CAKI-1
UO-31 = test system: UO-31
NCI-H23 = test system: NCI-H23
UACC-257 = test system: UACC-257
HOP-92 = test system: HOP-92
IGROV-1 = test system: IGROV-1

Compound: NC1C/C(=N\O)c2c(I)sc(I)c21 (stereo not drawn)
- GI50 (UACC-62): 17.3 µM (inactive)
- GI50 (SNB-75): 18.9 µM (inactive)
- GI50 (SR): 4.8 µM (inactive)
- GI50 (RPMI-8226): 6.7 µM (inactive)
- GI50 (HCT-15): 13.4 µM
- GI50 (SK-MEL-28): 17.5 µM (inactive)
- GI50 (NCI-H226): 18.4 µM (inactive)
- GI50 (OVCAR-4): 22 µM (inactive)
- GI50 (HOP-62): 18.2 µM (inactive)
- GI50 (NCI-H460): 21.3 µM (inactive)
- GI50 (SNB-19): 17.2 µM (inactive)
- GI50 (NCI-H522): 1.61 µM (inactive)
- GI50 (OVCAR-3): 15.8 µM (inactive)
- GI50 (OVCAR-8): 13.4 µM (inactive)
- GI50 (A498): 27 µM (inactive)
- GI50 (SK-MEL-2): 17.5 µM (inactive)
- GI50 (PC-3): 17.1 µM (inactive)
- GI50 (EKVX): 19 µM (inactive)
- GI50 (SF-268): 17.7 µM (inactive)
- GI50 (MOLT-4): 3.05 µM (inactive)
- GI50 (KM12): 13.1 µM (inactive)
- GI50 (HCC 2998): 20.1 µM (inactive)
- GI50 (M14): 14.5 µM (inactive)
- GI50 (SW-620): 9.82 µM (inactive)
- GI50 (SK-OV-3): 16.4 µM (inactive)
- GI50 (COLO 205): 19.6 µM (inactive)
- GI50 (LOX IMVI): 1.77 µM (inactive)
- GI50 (OVCAR-5): 15.7 µM (inactive)
- GI50 (MDA-MB-231): 21.3 µM (inactive)
- GI50 (HCT-116): 2.86 µM (inactive)
- GI50 (Malme-3M): 15.7 µM (inactive)
- GI50 (SF-539): 6.08 µM (inactive)
- GI50 (T47D): 23.2 µM (inactive)
- GI50 (Hs-578T): 19.8 µM (inactive)
- GI50 (MCF7): 7.31 µM (inactive)
- GI50 (HT-29): 19.2 µM (inactive)
- GI50 (U-251): 18.3 µM (inactive)
- GI50 (786-0): 16 µM (inactive)
- GI50 (TK-10): 16.9 µM (inactive)
- GI50 (MDA-N): 19.8 µM (inactive)
- GI50 (MDA-MB-435): 13.8 µM (inactive)
- GI50 (CCRF-CEM): 2.44 µM (inactive)
- GI50 (NCI/ADR-RES): 18.4 µM (inactive)
- GI50 (K562): 8.04 µM (inactive)
- GI50 (SF-295): 17.2 µM (inactive)
- GI50 (BT-549): 15.9 µM (inactive)
- GI50 (DU-145): 17.4 µM (inactive)
- GI50 (SN12C): 20.7 µM (inactive)
- GI50 (SK-MEL-5): 14.8 µM (inactive)
- GI50 (RXF 393): 21.3 µM (inactive)
- GI50 (ACHN): 18.7 µM (inactive)
- GI50 (HL-60): 4.23 µM (inactive)
- GI50 (A549): 16 µM (inactive)
- GI50 (CAKI-1): 15.2 µM (inactive)
- GI50 (UO-31): 13 µM (inactive)
- GI50 (NCI-H23): 14.7 µM (inactive)
- GI50 (UACC-257): 16 µM (inactive)
- GI50 (HOP-92): 17.1 µM (inactive)
- GI50 (IGROV-1): 15.7 µM (inactive)

Compound: C=C1C(=O)O[C@@H]2C[C@@]3(C)CCCC(=C)[C@@H]3C[C@H]12.C=C1C(=O)O[C@@H]2C[C@@]3(C)CCC[C@H](C)C3=C[C@H]12
- GI50 (UACC-62): 2.39 µM (inactive)
- GI50 (SNB-75): 1.91 µM (inactive)
- GI50 (SR): 0.494 µM (active)
- GI50 (RPMI-8226): 1.12 µM (inactive)
- GI50 (HCT-15): 1.55 µM
- GI50 (SK-MEL-28): 1.78 µM (inactive)
- GI50 (NCI-H226): 5.3 µM (inactive)
- GI50 (OVCAR-4): 2.7 µM (inactive)
- GI50 (HOP-62): 2.3 µM (inactive)
- GI50 (NCI-H460): 3.75 µM (inactive)
- GI50 (SNB-19): 9.33 µM (inactive)
- GI50 (NCI-H522): 1.38 µM (inactive)
- GI50 (OVCAR-3): 1.61 µM (inactive)
- GI50 (OVCAR-8): 1.6 µM (inactive)
- GI50 (A498): 1.71 µM (inactive)
- GI50 (SK-MEL-2): 2.09 µM (inactive)
- GI50 (PC-3): 3.2 µM (inactive)
- GI50 (EKVX): 4.78 µM (inactive)
- GI50 (SF-268): 2.55 µM (inactive)
- GI50 (MOLT-4): 1.34 µM (inactive)
- GI50 (KM12): 2.7 µM (inactive)
- GI50 (HCC 2998): 5.85 µM (inactive)
- GI50 (M14): 1.42 µM (inactive)
- GI50 (SW-620): 1.64 µM (inactive)
- GI50 (SK-OV-3): 9.79 µM (inactive)
- GI50 (COLO 205): 1.55 µM (inactive)
- GI50 (LOX IMVI): 2.9 µM (inactive)
- GI50 (OVCAR-5): 4.82 µM (inactive)
- GI50 (MDA-MB-231): 2.38 µM (inactive)
- GI50 (HCT-116): 1.41 µM (inactive)
- GI50 (Malme-3M): 0.731 µM (active)
- GI50 (SF-539): 2.13 µM (inactive)
- GI50 (T47D): 1.09 µM (active)
- GI50 (Hs-578T): 2.92 µM (inactive)
- GI50 (MCF7): 1.73 µM (inactive)
- GI50 (HT-29): 2.12 µM (inactive)
- GI50 (U-251): 3.63 µM (inactive)
- GI50 (786-0): 1.43 µM (inactive)
- GI50 (TK-10): 2.88 µM (inactive)
- GI50 (MDA-N): 2.04 µM (inactive)
- GI50 (MDA-MB-435): 1.54 µM (inactive)
- GI50 (CCRF-CEM): 1.51 µM (inactive)
- GI50 (NCI/ADR-RES): 1.96 µM (inactive)
- GI50 (K562): 2.04 µM (inactive)
- GI50 (SF-295): 11.5 µM (inactive)
- GI50 (BT-549): 1.45 µM (inactive)
- GI50 (DU-145): 2.77 µM (inactive)
- GI50 (SN12C): 1.69 µM (inactive)
- GI50 (SK-MEL-5): 1.6 µM (inactive)
- GI50 (RXF 393): 1.56 µM (inactive)
- GI50 (ACHN): 2.55 µM (inactive)
- GI50 (HL-60): 1.99 µM (inactive)
- GI50 (A549): 5.12 µM (inactive)
- GI50 (CAKI-1): 1.69 µM (inactive)
- GI50 (UO-31): 1.59 µM (inactive)
- GI50 (NCI-H23): 2 µM (inactive)
- GI50 (UACC-257): 1.65 µM (inactive)
- GI50 (HOP-92): 1.9 µM (inactive)
- GI50 (IGROV-1): 2.72 µM (inactive)
